IC50 data for 28 compounds are collected here from US10112941B2, “Tricyclic compounds as anticancer agents” (BRISTOL-MYERS SQUIBB COMPANY, priority 2013, dated 2018).

This experiment addresses BRD4 (Homo sapiens, UniProt O60885). The experiment can be described thus: Time Resolved Fluorescence Resonance Energy Transfer (TR-FRET) binding assay, BRD4. The conditions noted are these: one of the FRET assays described; read-out: FRET BRD4 IC50. In general terms: Time-resolved FRET reads energy transfer from a long-lived donor to a nearby acceptor.
Usually IC50 stands for the concentration needed to halve the response being measured. For `[2H]C([2H])([2H])c1nnn(C)c1-c1cnc2c3c(F)ccc(S(C)(=O)=O)c3n([C@H](c3ccccc3F)C3CCOCC3)c2c1` [Example 231, 5-{9-Fluoro-5-[(S)-(2-fluorophenyl)(oxan-4-yl)methyl]-6-methanesulfonyl-5H-pyrido[3,2-b]indol-3-yl}-4-(^2H3)methyl-1-methyl-1H-1,2,3-triazole], the half-maximal inhibitory concentration (IC50) is less than 5 nM.
For the compound `[2H]C([2H])([2H])c1nnn(C)c1-c1cnc2c3c(F)ccc(S(C)(=O)=O)c3n([C@H](c3ccc(F)cc3)C3CCOCC3)c2c1` [Example 233, 5-{9-Fluoro-5-[(S)-(4-fluorophenyl)(oxan-4-yl)methyl]-6-methanesulfonyl-5H-pyrido[3,2-b]indol-3-yl}-4-(^2H3)methyl-1-methyl-1H-1,2,3-triazole], the IC50 was less than 5 nM.
The same measure for `[2H]C([2H])([2H])c1nnn(C)c1-c1cnc2c3c(F)ccc(S(C)(=O)=O)c3n(C(c3ncccc3F)C3CCOCC3)c2c1` (stereo not shown) [Example 235, 3-Fluoro-2-({9-fluoro-6-methanesulfonyl-3-[4-(^2H3)methyl-1-methyl-1H-1,2,3-triazol-5-yl]-5H-pyrido[3,2-b]indol-5-yl}(oxan-4-yl)methyl)pyridine]: less than 5 nM.
Then `[2H]C([2H])([2H])c1nnn(C)c1-c1cnc2c3c(F)ccc(S(C)(=O)=O)c3n(C(c3ncccc3F)C3CCOCC3)c2c1` (stereo not shown) [Example 236, 3-Fluoro-2-({9-fluoro-6-methanesulfonyl-3-[4-(^2H3)methyl-1-methyl-1H-1,2,3-triazol-5-yl]-5H-pyrido[3,2-b]indol-5-yl}(oxan-4-yl)methyl)pyridine], with less than 1500 nM.
The same measure for `[2H]C([2H])([2H])c1nnn(C)c1-c1cnc2c3ccc(S(C)(=O)=O)cc3n(C(c3ncccc3F)C3CCC(F)(F)CC3)c2c1` (stereo not shown) [Example 239, 2-[(4,4-Difluorocyclohexyl)({7-methanesulfonyl-3-[4-(^2H3)methyl-1-methyl-1H-1,2,3-triazol-5-yl]-5H-pyrido[3,2-b]indol-5-yl})methyl]-3-fluoropyridine]: less than 5 nM.
With `[2H]C([2H])([2H])c1nnn(C)c1-c1cnc2c3ccc(S(C)(=O)=O)cc3n(C(c3ncccc3F)C3CCC(F)(F)CC3)c2c1` (stereo not shown) [Example 240, 2-[(4,4-Difluorocyclohexyl)({7-methanesulfonyl-3-[4-(^2H3)methyl-1-methyl-1H-1,2,3-triazol-5-yl]-5H-pyrido[3,2-b]indol-5-yl})methyl]-3-fluoropyridine], the IC50 was less than 5 nM.
The same measure for `Cc1nnn(C)c1-c1cnc2c3ccc(C4(O)COC4)cc3n([C@H](c3ccc(F)cc3)C3CCOCC3)c2c1` [Example 243, 3-[3-(Dimethyl-1H-1,2,3-triazol-5-yl)-5-[(S)-(4-fluorophenyl)(oxan-4-yl)methyl]-5H-pyrido[3,2-b]indol-7-yl]oxetan-3-ol]: less than 5 nM; for `Cc1noc(C)c1-c1cnc2c3ccc(C4(O)COC4)cc3n([C@H](c3ccccc3)C3CCOCC3)c2c1` [Example 244, 3-[3-(Dimethyl-1,2-oxazol-4-yl)-5-[(S)-oxan-4-yl(phenyl)methyl]-5H-pyrido[3,2-b]indol-7-yl]oxetan-3-ol]: less than 5 nM; for `[2H]C([2H])([2H])c1nnn(C)c1-c1cnc2c3c(OCC(F)F)ccc(S(C)(=O)=O)c3n(C(c3ncccc3F)C3CCOCC3)c2c1` (stereo not shown) [Example 245, 2-{[9-(2,2-Difluoroethoxy)-6-methanesulfonyl-3-[4-(^2H3)methyl-1-methyl-1H-1,2,3-triazol-5-yl]-5H-pyrido[3,2-b]indol-5-yl](oxan-4-yl)methyl}-3-fluoropyridine]: less than 5 nM.
Consider `[2H]C([2H])([2H])c1nnn(C)c1-c1cnc2c3c(OCC(F)F)ccc(S(C)(=O)=O)c3n(C(c3ncccc3F)C3CCOCC3)c2c1` (stereo not shown) [Example 246, 2-{[9-(2,2-Difluoroethoxy)-6-methanesulfonyl-3-[4-(^2H3)methyl-1-methyl-1H-1,2,3-triazol-5-yl]-5H-pyrido[3,2-b]indol-5-yl](oxan-4-yl)methyl}-3-fluoropyridine], for which the half-inhibitory concentration (IC50) was less than 1500 nM.
On to `[2H]C([2H])([2H])c1nnn(C)c1-c1cnc2c3c(OCC(C)(F)F)ccc(S(C)(=O)=O)c3n(C(c3ncccc3F)C3CCOCC3)c2c1` (stereo not shown) [Example 247, 2-{[9-(2,2-Difluoropropoxy)-6-methanesulfonyl-3-[4-(^2H3)methyl-1-methyl-1H-1,2,3-triazol-5-yl]-5H-pyrido[3,2-b]indol-5-yl](oxan-4-yl)methyl}-3-fluoropyridine], for which the half-maximal inhibitory concentration (IC50) is less than 5 nM.
The same measure for `[2H]C([2H])([2H])c1nnn(C)c1-c1cnc2c3c(OCC(C)(F)F)ccc(S(C)(=O)=O)c3n(C(c3ncccc3F)C3CCOCC3)c2c1` (stereo not shown) [Example 248, 2-{[9-(2,2-Difluoropropoxy)-6-methanesulfonyl-3-[4-(^2H3)methyl-1-methyl-1H-1,2,3-triazol-5-yl]-5H-pyrido[3,2-b]indol-5-yl](oxan-4-yl)methyl}-3-fluoropyridine]: less than 1500 nM; for `Cc1noc(C)c1-c1cnc2c3ccc(CC(C)(C)O)cc3n([C@H](c3ccccc3)C3CCOCC3)c2c1` [Example 252, 1-[3-(Dimethyl-1,2-oxazol-4-yl)-5-[(S)-oxan-4-yl(phenyl)methyl]-5H-pyrido[3,2-b]indol-7-yl]-2-methylpropan-2-ol]: less than 5 nM; for `Cc1nnn(C)c1-c1cnc2c3cc(CC(C)(C)O)ccc3n([C@H](c3ccccc3)C3CCOCC3)c2c1` [Example 255, 1-[3-(Dimethyl-1H-1,2,3-triazol-5-yl)-5-[(S)-oxan-4-yl(phenyl)methyl]-5H-pyrido[3,2-b]indol-8-yl]-2-methylpropan-2-ol]: less than 5 nM.
Take `Cc1nnn(C)c1-c1cnc2c3ccc(CC(C)(C)O)cc3n([C@H](c3ccc(F)cc3)C3CCOCC3)c2c1` [Example 256, 1-[3-(Dimethyl-1H-1,2,3-triazol-5-yl)-5-[(S)-(4-fluorophenyl)(oxan-4-yl)methyl]-5H-pyrido[3,2-b]indol-7-yl]-2-methylpropan-2-ol]: the IC50 was less than 5 nM.
As to `Cc1nnn(C)c1-c1cnc2c3c(S(C)(=O)=O)cccc3n([C@H](c3ccc(F)cc3)C3CCOCC3)c2c1` [Example 257, 5-{5-[(S)-(4-Fluorophenyl)(oxan-4-yl)methyl]-9-methanesulfonyl-5H-pyrido[3,2-b]indol-3-yl}-1,4-dimethyl-1H-1,2,3-triazole], the concentration for half-maximal inhibition (IC50) was less than 5 nM.
The same measure for `Cc1nnn(C)c1-c1cnc2c3c(S(C)(=O)=O)cccc3n([C@H](c3ccccc3)C3CCOCC3)c2c1` [Example 259, 5-{9-Methanesulfonyl-5-[(S)-oxan-4-yl(phenyl)methyl]-5H-pyrido[3,2-b]indol-3-yl}-1,4-dimethyl-1H-1,2,3-triazole]: less than 5 nM.
Then `COc1cc(C(C)(C)O)cc2c1c1ncc(-c3c(C)nnn3C)cc1n2[C@H](c1ccccc1)C1CCOCC1` [Example 260, 2-[3-(Dimethyl-1H-1,2,3-triazol-5-yl)-9-methoxy-5-[(S)-oxan-4-yl(phenyl)methyl]-5H-pyrido[3,2-b]indol-7-yl]propan-2-ol], with less than 5 nM; and `Cc1nnn(C)c1-c1cnc2c3ccc(CC(C)(C)O)cc3n([C@H](c3ccccc3)C3CCOCC3)c2c1` [Example 261, 1-[3-(Dimethyl-1H-1,2,3-triazol-5-yl)-5-[(S)-oxan-4-yl(phenyl)methyl]-5H-pyrido[3,2-b]indol-7-yl]-2-methylpropan-2-ol], with less than 5 nM; and `[2H]C([2H])([2H])c1nnn(C)c1-c1cnc2c3ccc(C(C)(C)O)cc3n([C@H](c3ccccc3)C3CCOCC3)c2c1` [Example 262, 2-{3-[4-(^2H3)Methyl-1-methyl-1H-1,2,3-triazol-5-yl]-5-[(S)-oxan-4-yl(phenyl)methyl]-5H-pyrido[3,2-b]indol-7-yl}propan-2-ol], with less than 5 nM.
In the case of `Cc1nnn(C)c1-c1cnc2c3ccc(S(C)(=O)=O)cc3n([C@H](c3ccccc3F)C3CCOCC3)c2c1` [Example 264], the IC50 was less than 5 nM.
Then `[2H]C([2H])([2H])c1nnn(C)c1-c1cnc2c3c(S(C)(=O)=O)cccc3n([C@H](c3ccccc3)C3CCOCC3)c2c1` [Example 268, 5-{9-Methanesulfonyl-5-[(S)-oxan-4-yl(phenyl)methyl]-5H-pyrido[3,2-b]indol-3-yl}-4-(^2H3)methyl-1-methyl-1H-1,2,3-triazole], with less than 5 nM.
The same measure for `Cc1nnn(C)c1-c1cnc2c3c(S(C)(=O)=O)cccc3n([C@H](c3ccccc3F)C3CCOCC3)c2c1` [Example 269]: less than 5 nM.
Then `[2H]C([2H])([2H])c1nnn(C)c1-c1cnc2c3ccc(C(C)(C)O)c(F)c3n([C@H](c3ccc(F)cc3)C3CCOCC3)c2c1` [Example 271, 2-{6-Fluoro-5-[(S)-(4-fluorophenyl)(oxan-4-yl)methyl]-3-[4-(^2H3)methyl-1-methyl-1H-1,2,3-triazol-5-yl]-5H-pyrido[3,2-b]indol-7-yl}propan-2-ol], with less than 5 nM; and `[2H]C([2H])([2H])c1nnn(C)c1-c1cnc2c3ccc(C(C)(C)O)c(F)c3n([C@H](c3ccccc3F)C3CCOCC3)c2c1` [Example 272, 2-{6-Fluoro-5-[(S)-(2-fluorophenyl)(oxan-4-yl)methyl]-3-[4-(^2H3)methyl-1-methyl-1H-1,2,3-triazol-5-yl]-5H-pyrido[3,2-b]indol-7-yl}propan-2-ol], with less than 5 nM; and `[2H]C([2H])([2H])c1nnn(C)c1-c1cnc2c3c(OC)cc(C(C)(C)O)cc3n([C@H](c3ccccc3)C3CCOCC3)c2c1` [Example 273, 2-{9-Methoxy-3-[4-(^2H3)methyl-1-methyl-1H-1,2,3-triazol-5-yl]-5-[(S)-oxan-4-yl(phenyl)methyl]-5H-pyrido[3,2-b]indol-7-yl}propan-2-ol], with less than 5 nM.
Take `COc1cc(C(C)(C)O)cc2c1c1ncc(-c3c(C)nnn3C)cc1n2[C@H](c1ccccc1F)C1CCOCC1` [Example 274]: the IC50 is less than 5 nM.
The same measure for `[2H]C([2H])([2H])c1nnn(C)c1-c1cnc2c3cc(F)c(C(C)(C)O)cc3n([C@H](c3ccc(F)cc3)C3CCOCC3)c2c1` [Example 277, 2-{8-Fluoro-5-[(S)-(4-fluorophenyl)(oxan-4-yl)methyl]-3-[4-(^2H3)methyl-1-methyl-1H-1,2,3-triazol-5-yl]-5H-pyrido[3,2-b]indol-7-yl}propan-2-ol]: less than 5 nM.
